Experimental data: patent publication US20260092086A1, “ANTIMICROBIAL LASSO PEPTIDES” (priority 2022, published 2026)
Values after ≈ are worked out from the molar mass of the structure shown. “Also recorded” adds a separate entry of the source. Where two headings read alike, the source gives them in different places. Where a SMILES comes first, the peptide text is derived from it.

Experiments:
[1] = tested on: Escherichia coli XL-1 Blue; assay: Intracellular toxicity: IPTG-induced expression from plasmid lacking cloD; type: cell-based; conditions: IPTG induction
Protocol: After characterizing the structure and proteolytic resistance of cloacaenodin, cloacaenodin's inhibition of bacterial growth was tested. As a preliminary test of antimicrobial activity, a version of the expression plasmid from which the cloD gene was removed was cloned, so that the lasso peptide could not be exported by the Escherichia coli upon isopropyl β-D-1-thiogalactopyranoside (IPTG)-induced expression.
Cloacaenodin variants were constructed using site-directed mutagenesis. Mutant precursor genes were amplified from the wild-type precursor in pAK2 using mutagenic primers. Following PCR amplification of the mutated precursor gene, the purified PCR product was digested and ligated into pAK2 with the EcoRI and HindIII restriction sites. For the pMP3 plasmid for deletion of the cloD gene, the D gene was first disrupted by digestion of pAK2 with BamHI and NcoI, which removed the entire cloD gene and the C-terminal portion of the cloC gene. The digested plasmid was then ligated with an insert that restored the C-terminal portion of the cloC gene. All mutants were sequence confirmed by Genewiz (now Azenta) before use.

[2] = tested on: Enterobacter ludwigii MGH216; type: cell-based
[3] = tested on: Enterobacter cloacae ATCC 13047; type: cell-based
Protocol: (§1) For liquid inhibition assays, 5 mL LB broth was inoculated with 40-50 μL of an overnight culture of E. cloacae or E. amnigenus. […] The plate was shaken at 30° C. at 250 rpm for E. cloacae, and 37° C. at 250 rpm for E. amnigenus. The OD600 was measured at 8-hour and 16-hour increments. The MIC is defined as the lowest concentration of cloacaenodin for which growth (as assessed by the OD600) was inhibited.

Enterobacter amnigenus = type: cell-based
Protocol: as §1

[4] = tested on: Enterobacter ludwigii MGH216; assay: Spot-on-lawn assay in M63 agar, clinical isolate; type: cell-based; conditions: reliably susceptible in at least three biological replicates
Protocol: Cloacaenodin was evaluated against several common laboratory strains as well as commercially acquired strains using a spot-on-lawn assay.^45 Strains were streaked out onto LB agar plates and incubated overnight at their recommended temperatures. A single colony was then used to inoculate an overnight culture in 5 mL of LB broth. After shaking at 250 rpm at the recommended temperature for each strain, 50 μL of the overnight culture was used to inoculate 5 mL of LB broth (volume ratio 1:100). These cultures were grown for a few hours until they reached the exponential phase (OD600˜0.4-0.6) before being added to 10 mL of soft M63 agar at a final cell density of 10^7 CFUs/mL, or 10^8 CFUs total in 10 mL. The M63 soft agar was composed of 2 g/L of (NH4)2SO4 (EMD MilliporeSigma), 13.6 g/L of KH2PO4 (Fisher), 40 mg/L of each of the 20 common amino acids, 0.2% glucose (Sigma), 0.00005% w/v thiamine hydrochloride (Sigma), and 0.65% w/v bacteriological-grade agar (Apex Bioresearch). […] Upon solidification, 10 μL of purified cloacaenodin in water at two-fold dilutions were then spotted onto the agar and allowed to dry. The plates were incubated overnight at the strains' recommended temperatures and analyzed the next morning for activity. The MIC is defined as the last dilution where a spot was visible. […]

α-chymotrypsin = target: T1, α-chymotrypsin (Bos taurus, UniProt P00766, DEL14-15/DEL147-148); assay: Protease digestion, chymotrypsin; type: in vitro ADME, bovine; conditions: 50 μM peptide, 25° C., about 1 hour, LC-MS
T1 construct: purchased Sigma-Aldrich; host or cells: bovine pancreas
Protocol: α-chymotrypsin from bovine pancreas (Sigma-Aldrich) was first resuspended in 1 mM HCl, 2 mM CaCl2). The enzyme was added to 50 μM peptide samples at a final enzyme concentration of about 0.04 mg/mL in a buffer of 100 mM tris(hydroxymethyl)aminomethane (Tris), 10 mM CaCl2, pH 8. The reactions were then allowed to incubate at 25° C. for about 1 hour before quenching with 1% formic acid, and an aliquot was injected onto LC-MS for analysis.

Thermolysin = target: T2, Thermolysin (Geobacillus stearothermophilus, UniProt P43133); assay: Protease digestion, thermolysin; type: in vitro ADME; conditions: 50 μM peptide, 30° C., about 1 hour, LC-MS
T2 construct: purchased Sigma-Aldrich
T2 sequence (P43133 236-551): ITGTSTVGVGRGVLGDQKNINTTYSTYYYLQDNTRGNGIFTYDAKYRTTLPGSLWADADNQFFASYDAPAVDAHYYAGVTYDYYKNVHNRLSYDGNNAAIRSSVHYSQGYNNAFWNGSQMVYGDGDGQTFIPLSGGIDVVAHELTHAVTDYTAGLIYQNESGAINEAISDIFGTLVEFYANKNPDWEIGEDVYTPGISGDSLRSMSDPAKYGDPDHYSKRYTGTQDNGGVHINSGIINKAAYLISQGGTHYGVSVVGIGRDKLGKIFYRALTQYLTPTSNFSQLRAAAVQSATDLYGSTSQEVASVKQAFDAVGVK
Protocol: Thermolysin from Geobacillus stearothermophilus (Sigma-Aldrich) was first resuspended in 50 mM Tris, 0.5 mM CaCl2). The enzyme was then added to 50 μM peptide samples at a final concentration of about 0.04 mg/mL in a buffer of 50 mM Tris, 0.5 mM CaCl2), pH 8. The reactions were then allowed to incubate at 30° C. for about 1 hour before quenching with 1% formic acid. An aliquot was then injected onto LC-MS for analysis.

[5] = tested on: Enterobacter kobei MGH178; type: cell-based
Protocol: (§2) Cloacaenodin was evaluated against several common laboratory strains as well as commercially acquired strains using a spot-on-lawn assay.^45 Strains were streaked out onto LB agar plates and incubated overnight at their recommended temperatures. A single colony was then used to inoculate an overnight culture in 5 mL of LB broth. After shaking at 250 rpm at the recommended temperature for each strain, 50 μL of the overnight culture was used to inoculate 5 mL of LB broth (volume ratio 1:100). These cultures were grown for a few hours until they reached the exponential phase (OD600˜0.4-0.6) before being added to 10 mL of soft M63 agar at a final cell density of 10^7 CFUs/mL, or 10^8 CFUs total in 10 mL. The M63 soft agar was composed of 2 g/L of (NH4)2SO4 (EMD MilliporeSigma), 13.6 g/L of KH2PO4 (Fisher), 40 mg/L of each of the 20 common amino acids, 0.2% glucose (Sigma), 0.00005% w/v thiamine hydrochloride (Sigma), and 0.65% w/v bacteriological-grade agar (Apex Bioresearch). […] Upon solidification, 10 μL of purified cloacaenodin in water at two-fold dilutions were then spotted onto the agar and allowed to dry. The plates were incubated overnight at the strains' recommended temperatures and analyzed the next morning for activity. The MIC is defined as the last dilution where a spot was visible.
(§3) Twelve (12) clinical isolates were tested at the Broad Institute of MIT and Harvard, with a subset of strains from BioProject PRJNA292902, BioProject PRJNA271899, BioProject PRJNA201976, and BioProject 219285. The strains were tested following the same spot-on-lawn assay protocol described above, but with BD Bacto Agar used instead. All cloacaenodin-treated isolates were incubated at 37° C. overnight, and the assay was repeated at least three times (on biological replicates) for each of the twelve (12) strains. We defined a strain to be susceptible if it was reliably susceptible in at least three biological replicates.

[6] = tested on: Enterobacter hormaechei UCI35; type: cell-based
Protocol: as §2, §3

[7] = tested on: Enterobacter cloacae UCI102; type: cell-based
Protocol: as §2, §3

[8] = tested on: Enterobacter asburiae UCI193; type: cell-based
Protocol: as §2, §3

Enterobacter cloacae = assay: Microscopy of cells treated with sub-MIC cloacaenodin; type: cell-based; conditions: sub-MIC cloacaenodin (230 nM), 16 hours in M63 media
Protocol: After a 96-well plate of E. cloacae grew for 16 hours at 30° C. with varying concentrations of cloacaenodin in M63 media, samples were imaged using a Zeiss Observer Z1 automated inverted microscope with a cage incubator kept at 37° C. The microscope was used with a 100× Zeiss chroma objective with oil immersion and 35 ms exposure transmitted light and controlled using SlideBook software. Images were viewed using the software ImageJ.

[9] = listed as Threaded cloacaenodin
[10] = listed as threaded cloacaenodin

SMILES: CC[C@H](C)[C@@H]1NC(=O)[C@H](CCCNC(=N)N)NC(=O)[C@H](CC(=O)O)NC(=O)[C@H](C(C)C)NC(=O)[C@H](CO)NC(=O)[C@H](Cc2c[nH]cn2)NC(=O)CNC(=O)CC[C@@H](C(=O)N[C@@H](Cc2ccc(O)cc2)C(=O)N[C@@H](Cc2ccccc2)C(=O)NCC(=O)N2CCC[C@H]2C(=O)N2CCC[C@H]2C(=O)NCC(=O)N[C@@H](CC(C)C)C(=O)N2CCC[C@H]2C(=O)NCC(=O)N2CCC[C@H]2C(=O)N[C@H](C(=O)N[C@@H](CC(C)C)C(=O)N[C@@H](Cc2ccccc2)C(=O)N[C@@H](Cc2ccc(O)cc2)C(=O)N[C@@H](CO)C(=O)O)C(C)C)NC(=O)[C@@H]2CCCN2C1=O [cloacaenodin] (HELM PEPTIDE1{G.H.S.V.D.R.I.P.E.Y.F.G.P.P.G.L.P.G.P.V.L.F.Y.S}$PEPTIDE1,PEPTIDE1,1:R1-9:R3$$$V2.0; C-terminus assumed)
- intracellular toxicity (growth of E. coli on IPTG without CloD) [1]: colonies did not appear; also recorded: can no longer grow
- MIC in M63 media [2]: 0.23 µM (≈ 0.594 µg/mL)
- MIC in M63 media ([3]; ATCC 13047): 0.94 µM (≈ 2.43 µg/mL)
- MIC in M63 media ([3]; liquid, Enterobacter cloacae ATCC 13047): 0.94 µM (liquid) (≈ 2.43 µg/mL)
- MIC, broth microdilution assay in M63 media (Enterobacter amnigenus): 0.23 µM (≈ 0.594 µg/mL)
- strain susceptible to cloacaenodin [4]: * MGH216
- proteolysis by chymotrypsin (α-chymotrypsin; [9]): resistant to chymotrypsin digestion
- proteolysis by chymotrypsin (α-chymotrypsin; [10]): remained resistant to proteolysis
- proteolysis by thermolysin (Thermolysin; [9]): resistant to thermolysin digestion
- proteolysis by thermolysin (Thermolysin; [10]): remained resistant to proteolysis
- MIC in M63 media [5]: 1 µM (≈ 2.58 µg/mL)
- MIC in M63 media [6]: 1 µM (≈ 2.58 µg/mL)
- MIC in M63 media [7]: 0.5 µM (≈ 1.29 µg/mL)
- MIC in M63 media [8]: 2 µM (≈ 5.17 µg/mL)
- strain susceptible to cloacaenodin ([8]; clinical strain UCI193, reliably susceptible in at least three biological replicates): * UCI193
- filamentation phenotype (Enterobacter cloacae): degree of filamentation; also recorded: filamentation phenotype
